In the supplement of paper PMC8967900:

Experiments:
Assay in all cases: selective drug sensitivity score (sDSS, relative to normal bone marrow) (sDSS (score)); higher = more potent and effective on the cell line relative to normal bone marrow cells
Conditions in all cases: 72 h
[1] = test system: COG-LL-394h
[2] = test system: MHH-CALL-2
[3] = test system: 697
[4] = test system: KASUMI-10
[5] = test system: 380
[6] = test system: LC4-1
[7] = test system: JURKAT
[8] = test system: KOPN-8
[9] = test system: KARPAS-45
[10] = test system: HPB-ALL
[11] = test system: MN-60
[12] = test system: RPMI-8402
[13] = test system: MHH-CALL-3
[14] = test system: SEM cells
[15] = test system: P30-OHKUBO
[16] = test system: NALL-1
[17] = test system: RCH-ACV
[18] = test system: CCRF-HSB2
[19] = test system: MOLT-16
[20] = test system: COG-LL-355h
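Also: ALL cell lines in 384-well plates, five doses spanning 10,000-fold, each plate scaled between vehicle and 100 µmol/L benzalkonium chloride controls, sDSS an adapted area-under-curve metric.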

| Structure (SMILES) | selective drug sensitivity score [1] | selective drug sensitivity score [2] | selective drug sensitivity score [3] | selective drug sensitivity score [4] | selective drug sensitivity score [5] | selective drug sensitivity score [6] | selective drug sensitivity score [7] | selective drug sensitivity score [8] | selective drug sensitivity score [9] | selective drug sensitivity score [10] | selective drug sensitivity score [11] | selective drug sensitivity score [12] | selective drug sensitivity score [13] | selective drug sensitivity score [14] | selective drug sensitivity score [15] | selective drug sensitivity score [16] | selective drug sensitivity score [17] | selective drug sensitivity score [18] | selective drug sensitivity score [19] | selective drug sensitivity score [20] |
| --- | --- | --- | --- | --- | --- | --- | --- | --- | --- | --- | --- | --- | --- | --- | --- | --- | --- | --- | --- | --- |
| Cn1nccc1Nc1nccc(-c2ccn([C@H](CO)c3ccc(Cl)c(F)c3)c(=O)c2)n1 [Ravoxertinib] (top concentration 10000 nM) | -0.2 | 8.4 | 1.5 | 5.2 | 4.9 | 7 | -0.8 | 13.6 | 2.4 | -0.4 | -3.2 | 1.9 | 9.7 | 0.7 | 3.5 | 10 | 4.5 | -1.2 | 4 | 7.7 |
| C/C=C1\NC(=O)[C@H]2CSSCC/C=C/[C@H](CC(=O)N[C@H](C(C)C)C(=O)N2)OC(=O)[C@H](C(C)C)NC1=O [Romidepsin] (top concentration 1000 nM) | -0.94 | 6.76 | 3.16 | 1.86 | 8.56 | 1.76 | 2.06 | 3.16 | 2.86 | 3.66 | -4.94 | 1.66 | 9.76 | 3.96 | 1.66 | 2.06 | 2.36 | 1.46 | 2.76 | -0.54 |
| CNCc1ccc(-c2[nH]c3cc(F)cc4c3c2CCNC4=O)cc1 [Rucaparib] (top concentration 10000 nM) | 0.92 | 9.02 | 6.42 | 1.12 | 11.5 | 0.32 | -0.58 | 5.12 | 0.72 | -0.58 | -0.58 | 0.32 | 13.8 | 2.72 | 0.42 | -0.58 | 1.02 | 1.22 | 2.72 | 0.92 |
| CC(C)(C)c1cnc(CSc2cnc(NC(=O)C3CCNCC3)s2)o1 [SNS-032] (top concentration 10000 nM) | -2.04 | 2.96 | -2.64 | -2.64 | -6.64 | -3.24 | -6.54 | -2.54 | -2.24 | -4.74 | -8.64 | -4.74 | -4.44 | -3.24 | -0.34 | -4.94 | 1.26 | -2.24 | -0.64 | 0.16 |
| Cc1c(C(=O)Nc2ccc(N3C[C@@H](C)O[C@@H](C)C3)nc2)cccc1-c1ccc(OC(F)(F)F)cc1 [Sonidegib] (top concentration 10000 nM) | -0.02 | 7.48 | 1.28 | 1.38 | -3.92 | 1.08 | 2.48 | 10.5 | 0.68 | 3.08 | -1.42 | 1.88 | -3.92 | -3.92 | 5.68 | 7.58 | 5.78 | -1.42 | 3.18 | -3.92 |
| CNC(=O)c1cc(Oc2ccc(NC(=O)Nc3ccc(Cl)c(C(F)(F)F)c3)cc2)ccn1 [Sorafenib] (top concentration 1000 nM) | 0 | 0.3 | 1.7 | 12.2 | 0 | 0 | 0.4 | 2 | 0.5 | 0.1 | 0 | 0 | 0 | 15.1 | 2.2 | 0 | 1.4 | 0 | 0 | 0 |
| CN1CCN(c2nc(C3=C(c4c[nH]c5ccccc45)C(=O)NC3=O)c3ccccc3n2)CC1 [Sotrastaurin] (top concentration 10000 nM) | 0.2 | 9.9 | 8 | 7.7 | 4.5 | 1.7 | -1.7 | 6.4 | -0.4 | 2.6 | -2.3 | 0 | 5.8 | 6.7 | 3.1 | 1.9 | 3.4 | 3.5 | 4.4 | 5.7 |
| Cc1cc(C(C)Nc2ccccc2)c2nc(N3CCOCC3)cc(=O)n2c1 (stereo not given) [TGX-221] (top concentration 10000 nM) | -1.24 | 5.16 | 0.16 | -1.64 | -1.64 | -1.64 | -0.74 | -1.64 | 1.46 | -1.64 | -1.64 | -0.04 | -1.64 | 5.46 | 3.36 | -0.44 | 13.5 | 2.36 | -1.34 | 2.96 |
| Cc1nc(-c2cn3c(n2)-c2ccc(-c4cnn(C(C)(C)C(N)=O)c4)cc2OCC3)n(C(C)C)n1 [Taselisib] (top concentration 1000 nM) | -2.7 | 6.9 | 3.9 | 1.7 | 7.4 | -2.2 | -2.6 | -0.9 | 2 | -0.4 | -0.4 | 1.5 | -4.3 | 5.2 | 12.2 | -1.7 | 22.1 | 2.3 | 2.8 | 11.9 |
| Cn1cncc1[C@@](N)(c1ccc(Cl)cc1)c1ccc2c(c1)c(-c1cccc(Cl)c1)cc(=O)n2C [Tipifarnib] (top concentration 10000 nM) | -1.1 | 7.8 | 6.9 | 3 | 9.2 | 1.6 | 3.6 | 11.2 | 25.4 | 6.1 | 2 | 20.9 | 7 | 18.6 | 3.5 | 1.4 | 6.9 | 9.4 | 11.8 | 4.5 |
| CN(C)CCOc1ccc(/C(=C(/CCCl)c2ccccc2)c2ccccc2)cc1 [Toremifene] (top concentration 10000 nM) | 0.58 | 9.68 | 0.28 | -5.42 | 1.58 | 1.08 | -0.42 | 0.98 | 0.38 | -1.72 | 0.78 | 0.58 | -2.52 | 0.48 | 0.58 | 8.98 | 6.88 | 1.48 | 3.38 | 2.28 |
| CC(=O)Nc1cccc(-n2c(=O)n(C3CC3)c(=O)c3c(Nc4ccc(I)cc4F)n(C)c(=O)c(C)c32)c1 [Trametinib] (top concentration 250 nM) | -4.34 | 2.96 | -2.64 | -5.34 | 3.56 | 2.46 | -7.94 | 4.36 | -7.14 | -0.24 | -8.04 | -8.04 | 9.46 | -8.04 | -8.04 | -4.84 | -8.04 | -1.54 | -1.94 | 5.06 |
| O=C(CCCCCCC(=O)Nc1ccc([C@H]2O[C@@H](CSc3nc(-c4ccccc4)c(-c4ccccc4)o3)C[C@@H](c3ccc(CO)cc3)O2)cc1)NO [Tubacin] (top concentration 10000 nM) | 5.44 | 7.74 | 8.54 | 4.54 | 20.4 | 7.14 | 4.14 | 16.9 | 5.04 | 4.44 | 5.44 | 7.64 | 17.8 | 9.44 | 7.44 | 7.54 | 11.2 | 15.8 | 9.14 | 7.14 |
| CN1CCc2c(c3ccccc3n2Cc2ccc(C(=O)NO)cc2)C1 [Tubastatin_A] (top concentration 10000 nM) | -0.14 | 3.76 | 4.46 | 2.46 | 11.7 | 6.76 | 0.36 | 9.86 | 4.46 | 6.76 | 2.16 | 1.86 | 18 | 4.76 | 6.96 | 8.76 | 8.16 | 2.06 | 2.86 | 3.16 |
| C[C@]1(c2nc3c(C(N)=O)cccc3[nH]2)CCCN1 [Veliparib] (top concentration 10000 nM) | -4.18 | 5.02 | -1.08 | -1.08 | -2.78 | -4.18 | -3.28 | 5.52 | -4.18 | -0.28 | -3.38 | -3.88 | 0.42 | -4.18 | 4.42 | -4.18 | -2.58 | -2.18 | 0.32 | 2.82 |
| CS(=O)(=O)c1ccc(C(=O)Nc2ccc(Cl)c(-c3ccccn3)c2)c(Cl)c1 [Vismodegib] (top concentration 10000 nM) | -1.14 | 2.86 | -0.84 | -1.14 | 0.76 | 5.26 | -1.14 | 6.76 | -1.14 | 0.76 | -1.14 | -1.14 | -1.14 | 2.06 | 0.36 | 1.06 | 3.46 | -1.14 | -1.14 | 2.26 |
